Each block holds one molecule with its values, some of them ahead of it.
Tests used:
α-synuclein = biological target: T1, α-synuclein (Homo sapiens, UniProt P37840); experiment: changes in tension and elasticity of α-synuclein film measured with a mechanochemical sensor; format: biochemical; settings: FIG. 4
T1 construct: purchased BIOMOL International LP
Experimental: (§1) Amyloid β (1-42) (Bachem AG, Budendorf, Switzerland) was dissolved in 0.1% ammonia water at the concentration of 1 mg/mL. This solution was sprayed under dry air using an electrospry device described in WO 2002-511792 or an immobilzing device described in Japanese Patent Publication No. 2003-136005. The solution was permeated through a mask with holes of 400 μm in length and 800 μm in width, and then a film having 1 μm thickness was prepared on 1.2% polyvinyl pyrrolidone, using an electrospray method (the EDS method). Then protein was cross-linked by glutaraldehyde.
(§2) The resulting film was placed on an apparatus having a mechanochemical sensor which was described in WO 2002-503332 or U.S. Patent Publication No. 6033913, and it was immersed into 10 mM Hepes pH7.4 buffer solution (hereinafter referred to as “the buffer solution”) containing 0.15 M NaCl. The buffer solution was passed through the film existing on the detecting apparatus at the flow rate of 0.1 to 0.2 mL/min, in order to stabilize the tension of the sample film. Thereafter ZnCl2 solution dissolved in said buffer solution was passed through to detect changes in tension and elasticity (FIG. 1).
A α-synuclein (BIOMOL International LP, PA, USA) film was prepared and placed on a detecting apparatus, as described in EXAMPLE 1. […]

amyloid β (1-42) = biological target: T2, amyloid β (1-42) (Homo sapiens, UniProt P05067); experiment: changes in tension and elasticity of amyloid β (1-42) film measured with a mechanochemical sensor; format: biochemical
T2 construct: Amyloid β (1-42) (Bachem AG, Budendorf, Switzerland); purchased Bachem AG
Experimental: as §1, §2
In FIG. 1, a place where the line uprises from the horizontal state (i.e. steady state), means a point where tension is given to the sample film, and compliance is detected where the line oscillates. […] It is assumed that the particular interaction referred herein is aggregation of amyloid β (1-42) caused by Zn^2+, when considered with many reports such as X. Huang et. al., (J. Biol. Chem., 1997, 272, 26464), C. S. Atwood et. al., (J. Biol. Chem., 1998, 273, 12817), or R. A. Cherny et. al., (Neuron, 2001, 30, 665).
Further, concentration of ZnCl2 was altered from 0.01 mM to 3 mM, in order to examine the effect of ZnCl2 concentration (FIG. 2).
An amyloid β (1-42) membrane was prepared and placed on a detecting apparatus, as described in EXAMPLE 1. The changes in tension and elasticity of the membrane, by CuCl2 dissolved in the buffer solution, were examined (FIG. 3). […] It has been reported that Cu^2+, as well as Zn^2+, facilitates aggregation of amyloid β.

T2 sequence (P05067 672-713): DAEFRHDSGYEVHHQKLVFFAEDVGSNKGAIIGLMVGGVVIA

change in tension and elasticity of the α-synuclein film by ZnCl2 (α-synuclein; ZnCl2 dissolved in the buffer solution): concentration-dependent change
change in elasticity with respect to ZnCl2 concentration (amyloid β (1-42); ZnCl2 0.01 mM to 3 mM, FIG. 2): concentration-dependent
isotropic tension and compliance (the inverse of stiffness) of the amyloid β (1-42) film (amyloid β (1-42); ZnCl2 solution in 10 mM Hepes pH7.4, 0.15 M NaCl passed over the film, FIG. 1): remarkably increased
SMILES: [Cl-].[Cl-].[Zn+2] [ZnCl2]

tension and elasticity of the film after EDTA, relative to the state prior to addition of ZnCl2 (amyloid β (1-42); amyloid β (1-42) film previously exposed to ZnCl2, FIG. 1): restored
SMILES: O=C(O)CN(CCN(CC(=O)O)CC(=O)O)CC(=O)O [EDTA]
tension after EDTA, relative to the state prior to addition of ZnCl2 (α-synuclein; α-synuclein film previously exposed to ZnCl2): restored by EDTA almost to the state prior to addition of ZnCl2
tension after EDTA, relative to the state prior to addition of CuCl2 (amyloid β (1-42); amyloid β (1-42) membrane previously exposed to CuCl2, FIG. 3): restored by EDTA almost to the state prior to addition of CuCl2

change in tension and elasticity of the amyloid β (1-42) membrane by CuCl2 (amyloid β (1-42); CuCl2 dissolved in the buffer solution, FIG. 3): concentration-dependent change
SMILES: [Cl][Cu][Cl] [CuCl2]

Source: patent US20080003691A1, “Method of Detecting Conformational Change of an Amyloid Protein, a Method of Searching a Substance Having an Activity that Affects to Conformational Change of an Amyloid Protein, and Method of Searching a Therapeutic or Diagnostic Agent for Amyloid-Related Diseases” (Fuence Co., Ltd., priority 2004, published 2008)
